# Assay results published in patent US9771357B2, “ALXR agonist compound” (ONO PHARMACEUTICAL CO., LTD., priority 2013, dated 2017).
# Molecular target: T1, ALXR (Homo sapiens, UniProt P25090)
# T1 construct: expressed in transfected cells; host or cells: CHO-K1
# T1 sequence (P25090 1-351): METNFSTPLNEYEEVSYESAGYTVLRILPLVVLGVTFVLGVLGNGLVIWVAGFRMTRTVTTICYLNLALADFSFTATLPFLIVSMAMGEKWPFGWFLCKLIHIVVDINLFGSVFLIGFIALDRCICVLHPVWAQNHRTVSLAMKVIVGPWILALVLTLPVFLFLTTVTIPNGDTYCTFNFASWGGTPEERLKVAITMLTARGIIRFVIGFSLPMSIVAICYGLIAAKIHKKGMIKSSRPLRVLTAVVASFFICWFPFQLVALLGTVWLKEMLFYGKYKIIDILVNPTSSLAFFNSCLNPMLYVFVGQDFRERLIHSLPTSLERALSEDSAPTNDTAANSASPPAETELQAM
# Assay: IP1 (Inositol Monophosphate) Assay
# Assay type: cell-based
# Conditions: ALXR/Gα16 expression CHO-K1 cell strain; for IP1 Concentration: compound at 3 μM, 30 minutes, medium group 293.6
# Method: IP1 (Inositol Monophosphate) Assay
# An ALXR/Gα16 expression CHO-K1 cell strain having 3×10^4 cells/100 μL was seeded on a 96-well plate using an F-12 culture medium (10% FBS, 100 μmol/L nonessential amino acid, 100 U/mL penicillin, 100 μg/mL streptomycin, 0.25 μg/mL Amphotericin B, 400 μg/mL Geneticin, and 5 μg/mL Puromycin), and cultured at 37° C. in 5% CO2 overnight. After the culture supernatant was removed, a 70-μL Basal buffer (10 mmol/L HEPES, 1 mmol/L CaCl2, 0.5 mmol/L MgCl2, 4.2 mmol/L KCl, 146 mmol/L NaCl, 5.5 mmol/L glucose, 50 mmol/L LiCl), each buffer containing one of the compounds and the reference example compound, was added. Here, as the medium group, a Basal buffer containing 1% DMSO was used. After the cell strain was further cultured at 37° C. in 5% CO2 for 30 minutes, IP1-d2 conjugate (Cisbio) and Anti-IP1 cryptate Tb conjugate (Cisbio) diluted with Lysis buffer (Cisbio) were each added in an amount of 15 μL. The culture was allowed to stand for 1 hour under shaded conditions at room temperature. Subsequently, using EnVision (PerkinElmer), measurement was performed at an excitation wavelength of 320 nm and fluorescence wavelengths of 620 nm and 665 nm, and the fluorescence ratio 665 nm/620 nm was calculated. With respect to the IP1 concentration, a calibration curve was produced using an IP1 calibrator (Cisbio) to be converted into concentration. The measured values were analyzed using XLfit (IDBS).
Compound,IP1 Concentration [nmol/L],enhancement of IP1 concentration as compared with the medium group (3 μM)
"Cc1sc(C2(O)CCN(C(=O)Nc3ccc(C(F)(F)F)cc3)CC2)nc1-c1cccc(F)c1 [27(1), 4-[4-(3-Fluorophenyl)-5-methyl-1,3-thiazol-2-yl]-4-hydroxy-N-[4-(trifluoromethyl)phenyl]-1-piperidinecarboxamide]",539.3,–
Cc1sc(C2CCN(C(=O)Nc3ccc(C(F)(F)F)cc3)CC2)nc1-c1cccc(F)c1 [29(2)],853.7,–
"O=C(Nc1ccc(C(F)(F)F)cc1)N1CCC(c2nc(-c3cccnc3)cs2)CC1 [Example 40, 4-[4-(3-Pyridyl)-1,3-thiazol-2-yl]-N-[4-(trifluoromethyl)phenyl]-1-piperidinecarboxamide]",789.9,–
"Cc1sc(C2(NS(C)(=O)=O)CCN(C(=O)Nc3ccc(C(F)(F)F)cc3)CC2)nc1-c1ccccc1 [Example 51, 4-(5-Methyl-4-phenyl-1,3-thiazol-2-yl)-4-[(methylsulfonyl)amino]-N-[4-(trifluoromethyl)phenyl]-1-piperidinecarboxamide]",592.1,–
"N#Cc1sc(C2CCN(C(=O)Nc3ccc(C(F)(F)F)cc3)CC2)nc1-c1ccccc1 [Example 60, 4-(5-Cyano-4-phenyl-1,3-thiazol-2-yl)-N-[4-(trifluoromethyl)phenyl]-1-piperidinecarboxamide]",1020.9,–
"O=C(Nc1cccnc1)N1CCC(c2nc(-c3ccccc3)cs2)CC1 [Reference Example Compound, 4-(4-Phenyl-1,3-thiazol-2-yl)-N-(3-pyridyl)-1-piperidinecarboxamide, reference compound]",282.5,no enhancement was seen
